Data reported in US10588317B2, “Isoxazoline-substituted benzamides and analogues as insecticides” (priority 2015, dated 2020).
Like-named read-outs stand apart in the source and are kept apart here.

How the values were obtained:
Type in all cases: in vivo
Diabrotica balteata = Diabrotica balteata (corn root worm), sprayed maize sprouts; details: 96 h, read-out: effect in at least one of the two categories (mortality or growth inhibition); for percent effect (mortality or growth inhibition) at 200 ppm: application rate 200 ppm, L2 larvae, 4 days after infestation
How it was run: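 Maize sprouts on agar sprayed with aqueous dilutions of DMSO stocks, dried, then infested with L2 larvae (6–10 per well). Mortality and growth inhibition scored against untreated controls 4 days after infestation, at 200 ppm application rate.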

Euschistus heros = Euschistus heros (neotropical brown stink bug), sprayed soybean leaves; details: 120 h, read-out: effect in at least one of the two categories (mortality or growth inhibition); for percent effect (mortality or growth inhibition) at 200 ppm: application rate 200 ppm, N2 nymphs, 5 days after infestation
How it was run: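 Soybean leaves on agar sprayed with aqueous dilutions of DMSO stocks, dried, then infested with N2 nymphs. Mortality and growth inhibition scored against untreated samples 5 days after infestation; application rate 200 ppm.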

Myzus persicae = Myzus persicae (green peach aphid): feeding/contact activity; details: 144 h
Method: (§1) Sunflower leaf discs were placed onto agar in a 24-well microtiter plate and sprayed with aqueous test solutions prepared from 10'000 ppm DMSO stock solutions. After drying, the leaf discs were infested with an aphid population of mixed ages. The samples were assessed for mortality 6 days after infestation.

Plutella xylostella = Plutella xylostella (diamond back moth), artificial diet; details: 120 h, read-out: effect in at least one of the two categories (mortality or growth inhibition); for percent effect (mortality or growth inhibition) at 200 ppm: application rate 200 ppm, L2 larvae, 5 days after infestation
How it was run: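 Artificial diet in 24-well plates treated with aqueous test solutions made from 10'000 ppm DMSO stocks, dried, then infested with L2 larvae (10 to 15 per well). Mortality and growth inhibition scored against untreated samples 5 days after infestation; activity cut-off at least 80% in either category at 200 ppm.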

Spodoptera littoralis = Spodoptera littoralis (Egyptian cotton leaf worm), sprayed cotton leaf discs; details: foliar, 72 h, read-out: control (mortality, anti-feeding effect, growth inhibition)
How it was run: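 Cotton leaf discs on agar sprayed with aqueous test solutions made from 10'000 ppm DMSO stock; after drying, infested with five L1 larvae. Mortality, anti-feeding and growth inhibition scored versus untreated samples 3 days after infestation; control counted when any category exceeds untreated.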

Tetranychus urticae = Tetranychus urticae (two-spotted spider mite): feeding/contact activity; details: 192 h
Method: Bean leaf discs on agar in 24-well microtiter plates were sprayed with aqueous test solutions prepared from 10'000 ppm DMSO stock solutions. After drying the leaf discs were infested with a mite population of mixed ages. The samples were assessed for mortality on mixed population (mobile stages) 8 days after infestation.

Thrips tabaci = Thrips tabaci (onion thrips): feeding/contact activity; details: 144 h
Method: as §1, with “on” for “onto”, “in” for “in a”, “plates” for “plate”, “drying” for “drying,”, “a Thrips” for “an aphid”

[1] = application rate 200 ppm, aphid population of mixed ages, 6 days after infestation, read-out: mortality
[2] = application rate 200 ppm, L1 larvae, 3 days after infestation
[3] = application rate 200 ppm, mixed population (mobile stages), 8 days after infestation, read-out: mortality
[4] = application rate 200 ppm, Thrips population of mixed ages, 6 days after infestation, read-out: mortality

Cc1cc(C2=NO[C@@](c3cc(Cl)c(F)c(Cl)c3)(C(F)(F)F)C2)ccc1C(=O)NC1CON(S(=O)(=O)CCCl)C1 (stereo partly drawn) [Compound A7, N-[2-(2-chloroethylsulfonyl)isoxazolidin-4-yl]-4-[(5S)-5-(3,5-dichloro-4-fluoro-phenyl)-5-(trifluoromethyl)-4H-isoxazol-3-yl]-2-methyl-benzamide]
≥ 80%: percent control (mortality or growth inhibition) at 200 ppm (Diabrotica balteata) | percent control (mortality or growth inhibition) at 200 ppm (Euschistus heros) | mortality at 200 ppm (Myzus persicae) | percent control (mortality or growth inhibition) at 200 ppm (Plutella xylostella) | mortality at 200 ppm (Spodoptera littoralis) | mortality at 200 ppm (Tetranychus urticae) | mortality at 200 ppm (Thrips tabaci)

CS(=O)(=O)N1CC(NC(=O)c2ccc(C3=NO[C@@](c4cc(Cl)c(Cl)c(Cl)c4)(C(F)(F)F)C3)cc2Cl)CO1 (stereo partly drawn) [Compound A15, 2-chloro-N-(2-methylsulfonylisoxazolidin-4-yl)-4-[(5S)-5-(3,4,5-trichlorophenyl)-5-(trifluoromethyl)-4H-isoxazol-3-yl]benzamide]
≥ 80%: percent effect (mortality or growth inhibition) at 200 ppm (Diabrotica balteata) | percent effect (mortality or growth inhibition) at 200 ppm (Euschistus heros) | mortality at 200 ppm (Myzus persicae; [1]) | percent effect (mortality or growth inhibition) at 200 ppm (Plutella xylostella) | mortality at 200 ppm (Spodoptera littoralis; [2]) | mortality at 200 ppm (Tetranychus urticae; [3]) | mortality at 200 ppm (Thrips tabaci; [4])

Cc1cc(C2=NO[C@@](c3cc(Cl)c(F)c(Cl)c3)(C(F)(F)F)C2)ccc1C(=O)NC1CON(S(=O)(=O)C(C)C)C1 (some centres unmarked) [Compound A17]
≥ 80%: percent effect (mortality or growth inhibition) at 200 ppm (Diabrotica balteata) | percent effect (mortality or growth inhibition) at 200 ppm (Euschistus heros) | mortality at 200 ppm (Myzus persicae; [1]) | percent effect (mortality or growth inhibition) at 200 ppm (Plutella xylostella) | mortality at 200 ppm (Spodoptera littoralis; [2]) | mortality at 200 ppm (Tetranychus urticae; [3]) | mortality at 200 ppm (Thrips tabaci; [4])

COCCS(=O)(=O)N1CC(NC(=O)c2ccc(C3=NO[C@@](c4cc(Cl)c(F)c(Cl)c4)(C(F)(F)F)C3)cc2C)CO1 (some centres unmarked) [Compound A18]
≥ 80%: percent effect (mortality or growth inhibition) at 200 ppm (Diabrotica balteata) | percent effect (mortality or growth inhibition) at 200 ppm (Euschistus heros) | mortality at 200 ppm (Myzus persicae; [1]) | percent effect (mortality or growth inhibition) at 200 ppm (Plutella xylostella) | mortality at 200 ppm (Spodoptera littoralis; [2]) | mortality at 200 ppm (Tetranychus urticae; [3]) | mortality at 200 ppm (Thrips tabaci; [4])

CCS(=O)(=O)N1CC(NC(=O)c2ccc(C3=NO[C@@](c4cc(Cl)c(Cl)c(Cl)c4)(C(F)(F)F)C3)cc2Br)CO1 (stereo partly drawn) [Compound A43, 2-bromo-N-(2-ethylsulfonylisoxazolidin-4-yl)-4-[(5S)-5-(3,4,5-trichlorophenyl)-5-(trifluoromethyl)-4H-isoxazol-3-yl]benzamide]
≥ 80%: percent effect (mortality or growth inhibition) at 200 ppm (Diabrotica balteata) | percent effect (mortality or growth inhibition) at 200 ppm (Euschistus heros) | mortality at 200 ppm (Myzus persicae; [1]) | percent effect (mortality or growth inhibition) at 200 ppm (Plutella xylostella) | mortality at 200 ppm (Spodoptera littoralis; [2]) | mortality at 200 ppm (Tetranychus urticae; [3]) | mortality at 200 ppm (Thrips tabaci; [4])

Cc1cc(C2=NOC(c3cc(Cl)c(C#N)c(Cl)c3)(C(F)(F)F)C2)ccc1C(=O)NC1CON(S(C)(=O)=O)C1 (centres unmarked) [Compound A50]
≥ 80%: percent effect (mortality or growth inhibition) at 200 ppm (Diabrotica balteata) | percent effect (mortality or growth inhibition) at 200 ppm (Euschistus heros) | mortality at 200 ppm (Myzus persicae; [1]) | percent effect (mortality or growth inhibition) at 200 ppm (Plutella xylostella) | mortality at 200 ppm (Spodoptera littoralis; [2]) | mortality at 200 ppm (Tetranychus urticae; [3]) | mortality at 200 ppm (Thrips tabaci; [4])

Cc1cc(C2=NO[C@@](c3cc(Cl)c(F)c(Cl)c3)(C(F)(F)F)C2)ccc1C(=O)NC1CON(S(N)(=O)=O)C1 (some centres unmarked) [Compound A71]
≥ 80%: percent effect (mortality or growth inhibition) at 200 ppm (Diabrotica balteata) | percent effect (mortality or growth inhibition) at 200 ppm (Euschistus heros) | mortality at 200 ppm (Myzus persicae; [1]) | percent effect (mortality or growth inhibition) at 200 ppm (Plutella xylostella) | mortality at 200 ppm (Spodoptera littoralis; [2]) | mortality at 200 ppm (Tetranychus urticae; [3]) | mortality at 200 ppm (Thrips tabaci; [4])

Cc1cc(C2=NO[C@@](c3cc(Cl)c(F)c(Cl)c3)(C(F)(F)F)C2)ccc1C(=O)NC1CON(S(=O)(=O)N(C)C(=O)N(C)C)C1 (some centres unmarked) [Compound A74]
≥ 80%: percent effect (mortality or growth inhibition) at 200 ppm (Diabrotica balteata) | percent effect (mortality or growth inhibition) at 200 ppm (Euschistus heros) | mortality at 200 ppm (Myzus persicae; [1]) | percent effect (mortality or growth inhibition) at 200 ppm (Plutella xylostella) | mortality at 200 ppm (Spodoptera littoralis; [2]) | mortality at 200 ppm (Tetranychus urticae; [3]) | mortality at 200 ppm (Thrips tabaci; [4])

COC(=O)N(C)S(=O)(=O)N1CC(NC(=O)c2ccc(C3=NO[C@@](c4cc(Cl)c(F)c(Cl)c4)(C(F)(F)F)C3)cc2C)CO1 (stereo partly drawn) [Compound A77, methyl N-[4-[[4-[(5S)-5-(3,5-dichloro-4-fluoro-phenyl)-5-(trifluoromethyl)-4H-isoxazol-3-yl]-2-methyl-benzoyl]amino]isoxazolidin-2-yl]sulfonyl-N-methyl-carbamate]
≥ 80%: percent effect (mortality or growth inhibition) at 200 ppm (Diabrotica balteata) | percent effect (mortality or growth inhibition) at 200 ppm (Euschistus heros) | mortality at 200 ppm (Myzus persicae; [1]) | percent effect (mortality or growth inhibition) at 200 ppm (Plutella xylostella) | mortality at 200 ppm (Spodoptera littoralis; [2]) | mortality at 200 ppm (Tetranychus urticae; [3]) | mortality at 200 ppm (Thrips tabaci; [4])

Cc1cc(C2=NO[C@@](c3cc(Cl)c(F)c(Cl)c3)(C(F)(F)F)C2)ccc1C(=O)NC1CON(S(=O)(=O)N(C)S(=O)(=O)N(C)C)C1 (stereo partly drawn) [Compound A79, 4-[(5S)-5-(3,5-dichloro-4-fluoro-phenyl)-5-(trifluoromethyl)-4H-isoxazol-3-yl]-N-[2-[dimethylsulfamoyl(methyl)sulfamoyl]isoxazolidin-4-yl]-2-methyl-benzamide]
≥ 80%: percent effect (mortality or growth inhibition) at 200 ppm (Diabrotica balteata) | percent effect (mortality or growth inhibition) at 200 ppm (Euschistus heros) | mortality at 200 ppm (Myzus persicae; [1]) | percent effect (mortality or growth inhibition) at 200 ppm (Plutella xylostella) | mortality at 200 ppm (Spodoptera littoralis; [2]) | mortality at 200 ppm (Tetranychus urticae; [3]) | mortality at 200 ppm (Thrips tabaci; [4])

Cc1cc(C2=NO[C@@](c3cc(Cl)c(F)c(Cl)c3)(C(F)(F)F)C2)ccc1C(=O)NC1CON(S(=O)(=O)N(C)C(=O)c2ccccc2)C1 (stereo partly drawn) [Compound A80, N-[2-[benzoyl(methyl)sulfamoyl]isoxazolidin-4-yl]-4-[(5S)-5-(3,5-dichloro-4-fluoro-phenyl)-5-(trifluoromethyl)-4H-isoxazol-3-yl]-2-methyl-benzamide]
≥ 80%: percent effect (mortality or growth inhibition) at 200 ppm (Diabrotica balteata) | percent effect (mortality or growth inhibition) at 200 ppm (Euschistus heros) | mortality at 200 ppm (Myzus persicae; [1]) | percent effect (mortality or growth inhibition) at 200 ppm (Plutella xylostella) | mortality at 200 ppm (Spodoptera littoralis; [2]) | mortality at 200 ppm (Tetranychus urticae; [3]) | mortality at 200 ppm (Thrips tabaci; [4])

Cc1cc(C2=NO[C@@](c3cc(Cl)c(Cl)c(Cl)c3)(C(F)(F)F)C2)ccc1C(=O)NC1CON(S(=O)(=O)N(C)CC2CO2)C1 (stereo partly drawn) [Compound A83, 2-methyl-N-[2-[methyl(oxiran-2-ylmethyl)sulfamoyl]isoxazolidin-4-yl]-4-[(5S)-5-(3,4,5-trichlorophenyl)-5-(trifluoromethyl)-4H-isoxazol-3-yl]benzamide]
≥ 80%: percent effect (mortality or growth inhibition) at 200 ppm (Diabrotica balteata) | percent effect (mortality or growth inhibition) at 200 ppm (Euschistus heros) | mortality at 200 ppm (Myzus persicae; [1]) | percent effect (mortality or growth inhibition) at 200 ppm (Plutella xylostella) | mortality at 200 ppm (Spodoptera littoralis; [2]) | mortality at 200 ppm (Tetranychus urticae; [3]) | mortality at 200 ppm (Thrips tabaci; [4])

CCCN(C)S(=O)(=O)N1CC(NC(=O)c2ccc(C3=NO[C@@](c4cc(Cl)c(Cl)c(Cl)c4)(C(F)(F)F)C3)cc2C)CO1 (stereo partly drawn) [Compound A84, 2-methyl-N-[2-[methyl(propyl)sulfamoyl]isoxazolidin-4-yl]-4-[(5S)-5-(3,4,5-trichlorophenyl)-5-(trifluoromethyl)-4H-isoxazol-3-yl]benzamide]
≥ 80%: percent effect (mortality or growth inhibition) at 200 ppm (Diabrotica balteata) | percent effect (mortality or growth inhibition) at 200 ppm (Euschistus heros) | mortality at 200 ppm (Myzus persicae; [1]) | percent effect (mortality or growth inhibition) at 200 ppm (Plutella xylostella) | mortality at 200 ppm (Spodoptera littoralis; [2]) | mortality at 200 ppm (Tetranychus urticae; [3]) | mortality at 200 ppm (Thrips tabaci; [4])

CCCCN(C)S(=O)(=O)N1CC(NC(=O)c2ccc(C3=NO[C@@](c4cc(Cl)c(Cl)c(Cl)c4)(C(F)(F)F)C3)cc2C)CO1 (stereo partly drawn) [Compound A85, N-[2-[butyl(methyl)sulfamoyl]isoxazolidin-4-yl]-2-methyl-4-[(5S)-5-(3,4,5-trichlorophenyl)-5-(trifluoromethyl)-4H-isoxazol-3-yl]benzamide]
≥ 80%: percent effect (mortality or growth inhibition) at 200 ppm (Diabrotica balteata) | percent effect (mortality or growth inhibition) at 200 ppm (Euschistus heros) | mortality at 200 ppm (Myzus persicae; [1]) | percent effect (mortality or growth inhibition) at 200 ppm (Plutella xylostella) | mortality at 200 ppm (Spodoptera littoralis; [2]) | mortality at 200 ppm (Tetranychus urticae; [3]) | mortality at 200 ppm (Thrips tabaci; [4])
